Drawing on ChEMBL document CHEMBL2303647, “Data associated with the publication PLoS ONE, 8(3), e57888, (2013) PMID: 23505445. Compounds: GSK PKIS; Assays: NIH NCATS”, this text covers AC50 for 34 compounds.

Test [1] concerns the target Luciferin 4-monooxygenase (Photinus pyralis, UniProt P08659).
Description: GSK_PKIS: Inhibition of Firefly Luciferase (Data from PubChem: AID 652016) [NIH NCATS]
Test [2] deals with T1, Coelenterazine h 2-monooxygenase (Renilla reniformis, UniProt P27652).
T1 sequence (P27652 whole entry): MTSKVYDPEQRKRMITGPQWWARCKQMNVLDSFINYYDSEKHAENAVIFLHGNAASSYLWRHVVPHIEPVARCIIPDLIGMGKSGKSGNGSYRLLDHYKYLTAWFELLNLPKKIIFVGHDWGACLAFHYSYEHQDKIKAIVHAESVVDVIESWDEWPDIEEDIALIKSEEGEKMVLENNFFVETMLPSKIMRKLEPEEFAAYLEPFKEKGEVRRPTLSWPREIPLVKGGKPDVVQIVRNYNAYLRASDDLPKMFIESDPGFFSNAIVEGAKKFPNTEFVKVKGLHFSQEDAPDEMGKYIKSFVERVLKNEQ
Description: GSK_PKIS: Inhibition of Sea Pansy Luciferase (Data from PubChem: AID 652015) [NIH NCATS]

Luciferin 4-monooxygenase, sequence (P08659 whole entry): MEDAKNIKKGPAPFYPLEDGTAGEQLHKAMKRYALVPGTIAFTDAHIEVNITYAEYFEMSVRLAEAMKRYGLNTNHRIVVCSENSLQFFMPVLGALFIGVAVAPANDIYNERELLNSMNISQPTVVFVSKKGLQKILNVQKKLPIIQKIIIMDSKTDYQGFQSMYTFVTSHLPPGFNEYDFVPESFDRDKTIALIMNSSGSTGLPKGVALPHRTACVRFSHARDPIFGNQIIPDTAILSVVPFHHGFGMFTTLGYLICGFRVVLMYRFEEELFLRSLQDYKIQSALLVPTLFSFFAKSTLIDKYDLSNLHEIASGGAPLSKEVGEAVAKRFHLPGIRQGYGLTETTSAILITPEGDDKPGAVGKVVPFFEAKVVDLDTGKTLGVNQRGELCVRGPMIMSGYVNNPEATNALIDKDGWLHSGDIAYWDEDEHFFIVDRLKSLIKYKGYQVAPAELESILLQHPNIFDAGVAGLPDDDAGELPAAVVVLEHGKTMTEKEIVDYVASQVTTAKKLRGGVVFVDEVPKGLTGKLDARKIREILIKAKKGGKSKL

As to `N#Cc1c(NC(=O)c2cccc3ccccc23)sc2c1CCCC2` [GW620972X], the AC50 in test [1] (read-out: AC50) was 18.3 µM; in test [2], “Phenotype: Inactive; Curve_Description: None”.
`Cc1ccc(C(=O)NC2CCC2)cc1-c1ccc(C(=O)NCC2CC2)cc1` [GW782912X]: the AC50 is 29.1 µM in test [1] (read-out: AC50) and “Phenotype: Inactive; Curve_Description: None” in test [2].
For `CCn1c(-c2nonc2N)nc2c(C#CC(C)(C)O)ncc(OC3CCNCC3)c21.O=C(O)C(F)(F)F` [GSK-619487A], the AC50 entry in test [1] and in test [2] was “Phenotype: Inactive; Curve_Description: None” each time.
Turning to `CN(C)c1cc2c(Nc3ccc4c(cnn4Cc4ccccc4)c3)ncnc2cn1` [GW282974X], the concentration at half-maximal activity (AC50) result in test [1] is “Phenotype: Inactive; Curve_Description: None”; in test [2] (read-out: AC50), 23.1 µM.
In the case of `COc1cc(C)c(N(C)C(=O)CN(C)C)cc1Nc1nc(Nc2cccc(F)c2C(N)=O)c2cc[nH]c2n1` [GSK-2219385A], the AC50 result in test [1] and in test [2] was “Phenotype: Inactive; Curve_Description: None” in each case.
In the case of `COC(=O)Nc1nc2cc(Oc3ccc(NC(=O)Nc4cccc(C(=O)O)c4)cc3)ccc2[nH]1` [GW701427A], the concentration at half-maximal activity (AC50) was found to be 0.116 µM in test [1] (read-out: AC50) and 41.1 µM in test [2] (read-out: AC50).
Consider `CC(=O)NCc1cccc(C#Cc2cncnc2Nc2ccc(OCc3cccc(F)c3)c(Cl)c2)c1` [GW807930X], for which the half-maximal activity concentration (AC50) result is on record as “Phenotype: Activator; Curve_Description: None” in test [1] and “Phenotype: Inactive; Curve_Description: None” in test [2].
For `CCn1c(-c2nonc2N)nc2cncc(C(=O)N3CC[C@H](N)C3)c21.Cl`, in that order: “Phenotype: Inactive; Curve_Description: None” and “Phenotype: Inactive; Curve_Description: None”.
As for `CCCN(CCS(C)(=O)=O)Cc1ccc(-c2ccc3ncnc(Nc4ccc(OCc5cccc(F)c5)c(Cl)c4)c3c2)o1.Cl` [GW621823A], the AC50 was 20.6 µM in test [1] (read-out: AC50) and “Phenotype: Inactive; Curve_Description: None” in test [2].
As to `CCOc1nccc2c1nc(-c1nonc1N)n2CC`, the half-maximal activity concentration (AC50) result in test [1] and in test [2] was “Phenotype: Inactive; Curve_Description: None” in each case.
Turning to `Cl.NC(=O)c1cccc(Nc2nccc(Nc3cccc(F)c3)n2)c1` [GW759710A], the half-maximal activity concentration (AC50) was 0.73 µM in test [1] (read-out: AC50) and “Phenotype: Inactive; Curve_Description: None” in test [2].
With `Fc1ccc(-c2c(-c3ccncc3)nc3n2CCS3)cc1`, the AC50 entry in test [1] and in test [2] was “Phenotype: Inactive; Curve_Description: None” each time.
For `OCc1ccc(-c2nc(-c3ccccn3)c(-c3ccc4c(c3)OCO4)[nH]2)cc1`, the half-maximal activity concentration (AC50) is 18.3 µM in test [1] (read-out: AC50) and 41.1 µM in test [2] (read-out: AC50).
Take `Cc1ccc2c(-c3ccnc(Nc4cccc(C(F)(F)F)c4)n3)c(-c3ccccc3)nn2n1` [GW829906X]: the AC50 in test [1] (read-out: AC50) was 41.1 µM; in test [2] it was “Phenotype: Inactive; Curve_Description: None”.
On to `Cl.Fc1ccc(-c2nc3n(c2-c2ccncc2)CCS3)cc1`, for which the AC50 result in test [1] and in test [2] was “Phenotype: Inactive; Curve_Description: None” each time.
With `Cc1ccc(C(=O)NC(C)C)cc1-c1ccc(C(=O)NCC2CC2)cc1` [GW785974X], the AC50 entry in test [1] and in test [2] was “Phenotype: Inactive; Curve_Description: None” in each case.
Consider `COc1cc(C)c(NC(=O)CN(C)C)cc1Nc1nc(Nc2cccc(F)c2C(N)=O)c2cc[nH]c2n1` [GSK-2213727A], for which the AC50 entry in test [1] and in test [2] was “Phenotype: Inactive; Curve_Description: None” throughout.
As for `COc1cc(/C=N/Nc2ncnc3[nH]ncc23)ccc1O` [GW578748X], the AC50 is 3.66 µM in test [1] (read-out: AC50) and “Phenotype: Inactive; Curve_Description: None” in test [2].
Consider `NS(=O)(=O)c1ccc(N/C=C2\C(=O)Nc3ccc4ncsc4c32)cc1` [GW297361X], for which the AC50 entry in test [1] was “Phenotype: Inactive; Curve_Description: None”; in test [2] (read-out: AC50) it was 32.6 µM.
The like results for `CC(C)=Cc1cccc2c1/C(=N/Nc1ccc(S(N)(=O)=O)cc1)C(=O)N2` [GW396574X] were, in that order, “Phenotype: Inactive; Curve_Description: None” and 20.6 µM.
On to `NS(=O)(=O)c1ccc(N/N=C2\C(=O)Nc3ccc(-c4cnco4)cc32)cc1` [GW276655X], for which the AC50 result in test [1] and in test [2] was “Phenotype: Inactive; Curve_Description: None” throughout.
As to `CC1=C(C(=O)Nc2ccc3[nH]nc(C)c3c2)C(c2ccc(C(F)(F)F)cc2)CC(=O)N1` (stereo not drawn) [GSK-466314A], the AC50 result in test [1] and in test [2] was “Phenotype: Inactive; Curve_Description: None” in each case.
On to `Cc1ccc(-c2cc3c(NC(=O)C4CC4)ncnc3o2)cc1` [GW819230X], for which the half-maximal activity concentration (AC50) in test [1] (read-out: AC50) is 18.3 µM; in test [2] it was “Phenotype: Inactive; Curve_Description: None”.
For `CNC(=O)Oc1cc(C)c(/C=C/c2cncc(C(=O)NC)c2)c(C)c1` [GW432441X], the AC50 is 29.1 µM in test [1] (read-out: AC50) and “Phenotype: Inactive; Curve_Description: None” in test [2].
Turning to `Fc1ccc(-c2ncn(C3CCNCC3)c2-c2ccnc(Oc3ccccc3)n2)cc1`, the AC50 was 20.6 µM in test [1] (read-out: AC50) and 18.3 µM in test [2] (read-out: AC50).
In the case of `COc1ccc(-c2coc3ncnc(N)c23)cc1` [GW642125X], the half-maximal activity concentration (AC50) result is “Phenotype: Inactive; Curve_Description: None” in test [1] and 20.6 µM in test [2] (read-out: AC50).
As to `CCn1c(-c2nonc2N)nc2ccc(F)cc21` [GW785404X], the AC50 entry in test [1] and in test [2] was “Phenotype: Inactive; Curve_Description: None” in each case.
In the case of `C[C@@H](Oc1cc(-n2cnc3ccc(OCC4CCN(C)CC4)cc32)sc1C(N)=O)c1ccccc1Cl` [GSK-571989A], the AC50 result in test [1] is “Phenotype: Inactive; Curve_Description: None”; in test [2] (read-out: AC50) it was 20.6 µM.
Regarding `O=C1NC(=O)C(c2ccccc2Cl)=C1Nc1cccc(O)c1`, the concentration at half-maximal activity (AC50) entry in test [1] and in test [2] was “Phenotype: Inactive; Curve_Description: None” each time.
As for `CC1=C(C(=O)Nc2ccc3[nH]ncc3c2)C(c2ccc(Cl)c(Cl)c2)CC(=O)N1` (stereo not drawn) [GSK-299115A], the AC50 entry in test [1] and in test [2] was “Phenotype: Inactive; Curve_Description: None” each time.
On to `CC(C)COC(=O)c1ccc2c(c1)/C(=C/Nc1ccc(S(N)(=O)=O)cc1)C(=O)N2` [GW416981X], for which the AC50 entry in test [1] and in test [2] was “Phenotype: Inactive; Curve_Description: None” each time.
As for `NS(=O)(=O)c1cccc(-c2ccc3c(NC(=O)C4CC4)n[nH]c3c2)c1`, the concentration at half-maximal activity (AC50) in test [1] (read-out: AC50) turned out to be 20.6 µM; in test [2] (read-out: AC50) it was 36.6 µM.
As to `CC1=C(C(=O)Nc2ccc3[nH]ncc3c2)C(c2ccc(F)cc2)NC(=O)N1` (stereo not drawn) [GSK-180736A], the AC50 entry in test [1] and in test [2] was “Phenotype: Inactive; Curve_Description: None” each time.
With `CCn1c(-c2nonc2N)nc2c(C#CC(C)(C)O)nc(OCCNC)cc21.Cl` [GSK-949675A], the AC50 entry was “Phenotype: Inactive; Curve_Description: None” in test [1] and 20.6 µM in test [2] (read-out: AC50).
